Laboratory results reported in ChEMBL document CHEMBL3244194, “beta-Adrenoceptor blocking activity of halogenated thienylethanolamine derivatives” (J Med Chem, 1977).
Active and inactive are the calls of the source. No cut-off for these calls is given here.

Key:
Rattus norvegicus [1] = assay: In vivo inhibition of beta-adrenoceptor in Wistar rat assessed as decrease in heart rate at 4 mg/kg, iv relative to control; assay type: functional
Rattus norvegicus [2] = assay: In vivo inhibition of beta-adrenoceptor in Wistar rat assessed as inhibition of isoproterenol-induced tachycardia at 4 mg/kg, iv relative to control; assay type: functional
[3] = Acute toxicity in iv dosed mouse; details: in vivo
Mus musculus [4] = assay: Local anesthetic activity in ICR Swiss mouse assessed as inhibition of pain reflex response at 0.5%, id relative to control; assay type: functional
Felis catus [5] = assay: In vivo inhibition of beta-adrenoceptor in cat assessed as inhibition of isoproterenol-induced tachycardia at 1 mg/kg, iv relative to control; assay type: functional
Felis catus [6] = assay: In vivo inhibition of beta-adrenoceptor in cat assessed as inhibition of isoproterenol-induced hypotension at 1 mg/kg, iv relative to control; assay type: functional
Cavia porcellus [7] = assay: In vivo inhibition of beta-adrenoceptor in histamine-treated guinea pig assessed as inhibition of isoproterenol-induced bronchodilator effect at 0.1 mg/kg, iv administered 3 mins prior to histamine/isoproterenol challenge relative to control; assay type: functional
Felis catus [8] = assay: In vivo inhibition of beta-adrenoceptor in cat assessed as inhibition of isoproterenol-induced tachycardia at 0.1 mg/kg, iv relative to control; assay type: functional
Mus musculus [9] = assay: Local anesthetic activity in ICR Swiss mouse assessed as inhibition of pain reflex response at 1%, id relative to control; assay type: functional, organism-based
Felis catus [10] = assay: In vivo inhibition of beta-adrenoceptor in cat assessed as inhibition of isoproterenol-induced hypotension at 0.1 mg/kg, iv relative to control; assay type: functional
Felis catus [11] = assay: In vivo inhibition of beta-adrenoceptor in cat assessed as inhibition of isoproterenol-induced tachycardia at 0.05 mg/kg, iv relative to control; assay type: functional
Cavia porcellus [12] = assay: In vivo inhibition of beta-adrenoceptor in histamine-treated guinea pig assessed as inhibition of isoproterenol-induced bronchodilator effect at 0.01 mg/kg, iv administered 3 mins prior to histamine/isoproterenol challenge relative to control; assay type: functional, organism-based; parameters: dose 0.01 mg/kg

Structure (SMILES) | inhibition in vivo at 4 mg/kg (Rattus norvegicus [1]) [%] | inhibition in vivo at 4 mg/kg (Rattus norvegicus [2]) [%] | LD50 [3] [mg/kg] | inhibition (INH) (Mus musculus [4]) [%] | inhibition in vivo at 1 mg/kg (Felis catus [5]) [%] | inhibition in vivo at 1 mg/kg (Felis catus [6]) [%] | inhibition in vivo at 0.1 mg/kg (Cavia porcellus [7]) [%] | inhibition in vivo at 0.1 mg/kg (Felis catus [8]) [%] | local anesthetic activity (active/inactive) (Mus musculus [9]) | inhibition in vivo at 0.1 mg/kg (Felis catus [10]) [%] | inhibition in vivo at 0.05 mg/kg (Felis catus [11]) [%] | inhibition (Cavia porcellus [12])
CC(C)NCC(O)c1sc(Br)cc1Br (racemic) | 14 | 77.5 | 35 |  |  |  |  |  |  |  |  | 
CC(C)(C)NCC(O)c1scc(Br)c1Br (racemic) | 36 | 95 | 28 | 75 | 92 | 97 | 100 | 53 | Active | 64 |  | 
CC(C)(C)NCC(O)c1sccc1Cl (racemic) | 0 | 0 | 25 |  |  |  |  |  |  |  |  | 
CC(C)NCC(O)c1cc(Br)cs1 (racemic) | 11 | 89.5 | 42 |  | 90 | 82 |  | 70 |  | 53 |  | 
CC(C)NCC(O)c1sc(Cl)cc1Cl (racemic) | 28 | 70 | 35 |  |  |  |  |  |  |  |  | 
CC(C)(C)NCC(O)c1cc(Cl)cs1 (racemic) | 6 | 53 | 38 |  |  |  |  |  |  |  |  | 
CC(C)NCC(O)c1sccc1Cl (racemic) | 0 | 0 | 38 |  |  |  |  |  |  |  |  | 
CC(C)NCC(O)c1ccc(Br)s1.Cl (racemic) | 11 | 87 | 45 | 52 | 82 | 72 |  | 67.5 | Active | 50 |  | 
CC(C)NCC(O)c1sccc1Br (racemic) | 0 | 0 | 35 |  |  |  |  |  |  |  |  | 
CC(C)(C)NCC(O)c1sc(Br)cc1Br (racemic) | 17 | 78 | 42 | 82 | 88 | 89 |  | 50 | Active | 45 |  | 
CC(C)(C)NCC(O)c1sc(Cl)cc1Cl (racemic) | 32 | 75 | 30 |  | 74 | 65 |  | 65 |  | 55 |  | 
CC(C)(C)NCC(O)c1sccc1Br (racemic) | 10 | 12.5 | 25 |  |  |  |  |  |  |  |  | 
CC(C)NCC(O)c1scc(Br)c1Br.Cl (racemic) | 10 | 92 | 27 |  |  |  |  |  |  |  |  | 
CC(C)NCC(O)c1cc(Br)c(Br)s1.Cl (racemic) | 25 | 100 | 45 | 72.5 | 100 | 100 | 40 | 92.5 | Active | 75 | 78 | inactive
CC(C)NCC(O)c1cc(Cl)cs1 (racemic) | 8 | 86 | 35 |  | 90 | 75 |  | 62 |  | 57 |  | 
CC(C)(C)NCC(O)c1sc(Cl)c(Cl)c1Cl (racemic) | 26 | 89 | 40 | 52 | 98 | 100 | 100 | 69 | Active | 87 |  | 
CC(C)(C)NCC(O)c1sc(Br)c(Br)c1Br (racemic) | 12 | 90 | 32 |  | 100 | 100 |  | 72.5 |  | 77.5 |  | 
CC(C)(C)NCC(O)c1ccc(Br)s1 (racemic) | 8 | 55.5 | 27 |  |  |  |  |  |  |  |  | 
CC(C)NCC(O)COc1cccc2ccccc12 (stereo not given) [PROPRANOLOL] | 32 | 95 |  | 93 | 100 | 100 | 100 | 87 | Active | 85 |  | Active
CC(C)NCC(O)c1sc(Br)c(Br)c1Br (racemic) | 10 | 75 | 35 | 40 | 95 | 88 |  | 50 | Active | 65 |  | 
CC(C)NCC(O)c1sc(Cl)c(Cl)c1Cl (racemic) | 20 | 90 | 35 |  | 100 | 85 |  | 58 |  | 52 |  | 
CC(C)(C)NCC(O)c1cc(Br)c(Br)s1 (racemic) | 18 | 92 | 38 | 100 | 100 | 95 | 100 | 87.5 | Active | 58 | 61 | 
CC(C)(C)NCC(O)c1cc(Br)cs1 (racemic) | 17 | 50 | 35 |  | 67 | 50 | 25 | 33 |  | 0 |  | 
